Test results taken from patent publication EP4635500A1, “THERAPEUTIC AGENT FOR BACTERIAL INFECTION” (Sumitomo Pharma Co., Ltd., priority 2022, dated 2024).
Where two headings read alike, the source gives them in different places.

System: P. aeruginosa
Test: MIC, broth microdilution, CDC/FDA Antibiotic Resistance Isolate Bank (Example 7, Tables 10, 15)
Format: cell-based
Details: Pseudomonas aeruginosa, read-out: MIC

Measured: MIC

CN(C)c1cc(NC(=O)CNC(C)(C)C)c(O)c2c1C[C@H]1C[C@H]3[C@H](N(C)C)C(O)=C(C(N)=O)C(=O)[C@@]3(O)C(O)=C1C2=O [Tigecycline, tigecycline]
0.002 µg/mL: P. aeruginosa KUB No. 5815, AR Bank # 510 | P. aeruginosa KUB No. 5832, AR Bank # 527
0.008 µg/mL: P. aeruginosa KUB No. 5814, AR Bank # 509 | P. aeruginosa KUB No. 5818, AR Bank # 513 | P. aeruginosa KUB No. 5820, AR Bank # 515
0.016 µg/mL: P. aeruginosa KUB No. 5813, AR Bank # 508 | P. aeruginosa KUB No. 5817, AR Bank # 512 | P. aeruginosa KUB No. 5823, AR Bank # 518
0.5 µg/mL: P. aeruginosa KUB No. 5685, AR Bank # 252
16 µg/mL: P. aeruginosa KUB No. 5677, AR Bank # 244 | P. aeruginosa KUB No. 5678, AR Bank # 245
0.004 µg/mL: P. aeruginosa KUB No. 5816, AR Bank # 511 | P. aeruginosa KUB No. 5819, AR Bank # 514 | P. aeruginosa KUB No. 5821, AR Bank # 516 | P. aeruginosa KUB No. 5831, AR Bank # 526 | P. aeruginosa KUB No. 5833, AR Bank # 528 | P. aeruginosa KUB No. 5834, AR Bank # 529
1 µg/mL: P. aeruginosa KUB No. 5676, AR Bank # 243 | P. aeruginosa KUB No. 5696, AR Bank # 263 | P. aeruginosa KUB No. 5798, AR Bank # 455
2 µg/mL: P. aeruginosa KUB No. 5667, AR Bank # 234 | P. aeruginosa KUB No. 5670, AR Bank # 237 | P. aeruginosa KUB No. 5675, AR Bank # 242 | P. aeruginosa KUB No. 5681, AR Bank # 248 | P. aeruginosa KUB No. 5686, AR Bank # 253 | P. aeruginosa KUB No. 5688, AR Bank # 255 | P. aeruginosa KUB No. 5691, AR Bank # 258 | P. aeruginosa KUB No. 5693, AR Bank # 260 | P. aeruginosa KUB No. 5695, AR Bank # 262 | P. aeruginosa KUB No. 5697, AR Bank # 264 | P. aeruginosa KUB No. 5701, AR Bank # 268 | P. aeruginosa KUB No. 5705, AR Bank # 272 | P. aeruginosa KUB No. 5749, AR Bank # 353 | P. aeruginosa KUB No. 5752, AR Bank # 356 | P. aeruginosa KUB No. 5800, AR Bank # 457 | P. aeruginosa KUB No. 5806, AR Bank # 864
8 µg/mL: P. aeruginosa KUB No. 5666, AR Bank # 23 | P. aeruginosa KUB No. 5668, AR Bank # 235 | P. aeruginosa KUB No. 5673, AR Bank # 240 | P. aeruginosa KUB No. 5690, AR Bank # 257 | P. aeruginosa KUB No. 5694, AR Bank # 261 | P. aeruginosa KUB No. 5698, AR Bank # 265 | P. aeruginosa KUB No. 5699, AR Bank # 266 | P. aeruginosa KUB No. 5700, AR Bank # 267 | P. aeruginosa KUB No. 5703, AR Bank # 270 | P. aeruginosa KUB No. 5747, AR Bank # 351 | P. aeruginosa KUB No. 5748, AR Bank # 352 | P. aeruginosa KUB No. 5751, AR Bank # 355 | P. aeruginosa KUB No. 5753, AR Bank # 357 | P. aeruginosa KUB No. 5786, AR Bank # 440 | P. aeruginosa KUB No. 5799, AR Bank # 456 | P. aeruginosa KUB No. 5801, AR Bank # 458 | P. aeruginosa KUB No. 5804, AR Bank # 862 | P. aeruginosa KUB No. 5805, AR Bank # 863
4 µg/mL: P. aeruginosa KUB No. 5669, AR Bank # 236 | P. aeruginosa KUB No. 5671, AR Bank # 238 | P. aeruginosa KUB No. 5672, AR Bank # 239 | P. aeruginosa KUB No. 5674, AR Bank # 241 | P. aeruginosa KUB No. 5679, AR Bank # 246 | P. aeruginosa KUB No. 5680, AR Bank # 247 | P. aeruginosa KUB No. 5682, AR Bank # 249 | P. aeruginosa KUB No. 5684, AR Bank # 251 | P. aeruginosa KUB No. 5692, AR Bank # 259 | P. aeruginosa KUB No. 5702, AR Bank # 269 | P. aeruginosa KUB No. 5704, AR Bank # 271 | P. aeruginosa KUB No. 5750, AR Bank # 354 | P. aeruginosa KUB No. 5754, AR Bank # 358 | P. aeruginosa KUB No. 5755, AR Bank # 359 | P. aeruginosa KUB No. 5756, AR Bank # 360 | P. aeruginosa KUB No. 5785, AR Bank # 439 | P. aeruginosa KUB No. 5787, AR Bank # 441 | P. aeruginosa KUB No. 5788, AR Bank # 443 | P. aeruginosa KUB No. 5789, AR Bank # 444 | P. aeruginosa KUB No. 5790, AR Bank # 445 | P. aeruginosa KUB No. 5793, AR Bank # 449 | P. aeruginosa KUB No. 5802, AR Bank # 459
